Results on six molecules are retold here after patent publication US20260242320A1, “USE OF CANNABIDIOL DERIVATIVE IN PREPARATION OF MEDICAMENT” (priority 2023, published 2026).

One series deals with BV-2 cellular viability. The experiment in a line: Cell viability / cytotoxicity by crystal violet staining. The format is cell-based. Particulars: Mus musculus, BV-2, read-out: Cellular toxicity (IC50 inhibiting BV-2 cellular viability). On the procedure:
100 μL of culture medium were transferred to a black 96-well plate for later use. Following removal of old culture medium, 100 μL of 4% paraformaldehyde was added for fixation. Fixation was performed for 5 minutes. Paraformaldehyde was then removed, and 100 μL of 0.05% crystal violet was added. The resultant mixture was incubated for 15 minutes, after which time crystal violet was removed and the mixture was slowly rinsed with water three times. Next, 150 μL of ethanol was added, and the mixture was incubated for 15 minutes. After incubation, the absorbance was measured at 540 nm using a spectrophotometer. Viability (%)=100× Fluorescence values of the dosing group/Fluorescence values of the blank group.
Cell viability was determined by crystal violet staining. Briefly, BV-2 cells were treated as indicated in the NO assay. The media was removed, and then 4% paraformaldehyde was added to fix the cells for 5 min. Cells were stained with 100 μL 0.05% crystal violet for 15 min and washed with water 2 times. Next, 150 μL of ethanol was added to each well, and the plate was incubated for 15 min at room temperature. Absorbance at 540 nm was measured using a SYNERGY H1 Microplate Reader.

Series [1] has as its system LPS-induced proinflammatory factor nitric oxide (NO) in immunocompetent BV-2 cells. The experiment in a line: NO assay: inhibition of LPS-induced NO overproduction in BV-2 cells. The format is cell-based. Particulars: Mus musculus, read-out: Antineuroinflammatory activity (IC50 inhibiting LPS-induced NO). On the procedure:
BV-2 cells were seeded at a density of 5×10^4 cells per milliliter in 96-well plates. After 24 h incubation, the media was removed and changed to DMEM without FBS and penicillin-streptomycin. LPS (200 ng/mL) and different concentrations of compounds were added. After 24 h treatment, 100 μL of media was transferred to flat black 96-well micro fluor plates, and then, 10 μL of 0.05 mg/mL 2,3-diaminonaphthalene was added and incubated in the dark for 15 min. 5 μL of NaOH (3 M) was subsequently added to each well to quench the reaction. NO inhibition ratio was analyzed by a SYNERGY H1 Microplate Reader (BioTek Instruments, Carlsbad, CA, USA) with excitation at 360 nm and emission at 430 nm. The fluorescence value of the LPS-treated group was set as 100%.

For the next series, the system named is morphine-dependent mice. The experiment in a line: Naloxone-precipitated morphine withdrawal jumps. The series is classed as in vivo. Particulars: 2 μg/kg, 20 μg/kg, 0.2 mg/kg i.p. On the procedure:
Mice were intraperitoneally injected with an escalating dose of morphine three times daily for 3 days (5, 20, and 40 mg/kg) to induce addiction. On the fourth day, mice were given morphine (40 mg/kg) or vehicle (5 mL/kg). […] The withdrawal was precipitated by naloxone. Each mouse was placed into a transparent plastic box immediately, and the number of jumps was recorded for 15 min.

A short description of series [2]: Pharmacokinetic profiles in brain and plasma after oral administration. The series is classed as in vivo, mice. The conditions noted are these: 10 mg/kg p.o. Here is the method:
Following administration, mice (BALB/c, male, 20-25 g) were sacrificed at 0.5, 1, 2, 3, and 4 h. The blood and brain tissue were collected and extracted with acetonitrile.

Assay in series [3]: as above
The series is classed as in vivo, mice. The conditions noted are these: male, BALB/c, mouse, 10 mg/kg p.o., read-out: B/P ratio.

The next series has as its system morphine-treated mice. The experiment in a line: Morphine-induced behavioral sensitization. The conditions noted are these: 0.2 mg/kg i.p., mice. The series is classed as in vivo. On the procedure:
Mice were placed into the test chamber (40×40×40 cm^3) for 60 min to habituate the chamber for three consecutive days. […] Locomotor activity was recorded daily for 60 min after the administration of drugs. Next, all the mice were subjected to a 7-day withdrawal period (days 8-14). Subsequently, mice were given morphine (5 mg/kg, i.p.), and locomotor activity was recorded to determine behavioral sensitization.

Another series deals with T1, CB1 Receptor (Homo sapiens, UniProt P21554).
T1 construct: expressed in transfected cells; host or cells: GloSensor 22-F HEK293 cells
The experiment in a line: cAMP measurement, forskolin-induced cAMP accumulation, CB1. The format is cell-based. Here is the method:
(§1) GloSensor 22-F HEK293 cells were transfected with plasmids encoding different receptors (CB1 and CB2). After 24 h, HEK293 cells were seeded at a density of 5×10^4 cells per well in 96-well plates and incubated for 8 h; then, the medium was removed, and 200 μL of serum-free DMEM medium containing 2% GloSensor cAMP substrate (Promega) was added. After 2 h incubation, the transfected cells were stimulated with different concentrations of ligands together with […]. The luminescence was recorded using a Multimode Plate Reader (En Vision, PerkinElmer).

The test system of series [4] is LPS-induced IL-1β, TNF-α, IL-6, iNOS, IL-10 mRNA in BV-2 cells. The experiment in a line: qRT-PCR of proinflammatory and M1/M2 marker mRNAs in LPS-treated BV-2 cells. Particulars: BV-2 cells. The format is cell-based. Here is the method:
Total RNA was extracted from cells or mouse brains using the RNeasy Mini Kit. Isolated RNA was reverse-transcribed into cDNA using an RT2 Easy First Strand cDNA Synthesis Kit following the manufacturer's protocols. PCR amplification was conducted using synthetic primers, SYBR Green, and a TOptical Real-Time qPCR Thermal Cycler (Analytik Jena, Thuringia, Germany). The data were analyzed by the […] method, and Rpl711 or Rpl27 was used as an internal control.
A general note: Quantitative PCR measures a nucleic acid by following its amplification.

The target in the next series is T2, CB2 Receptor (Homo sapiens, UniProt P34972).
T2 construct: expressed in transfected cells; host or cells: GloSensor 22-F HEK293 cells
The experiment in a line: cAMP measurement, forskolin-induced cAMP accumulation, CB2. The format is cell-based. On the procedure: as §1
(In general: Changes in cAMP serve as a functional read-out for many G protein-coupled receptors.)

Series [5] can be described thus: Y-maze test of short-term memory. Particulars: CIAC001 20 mg/kg i.p.; THC 10 mg/kg i.p. The series is classed as in vivo, mice. Here is the method: Mice were tested for short-term memory using a Y-maze task. Briefly, mice were placed into the Y-maze for 10 min once daily to habituate the apparatus for two consecutive days. After daily habituation, the mice were then treated with CIAC001 (20 mg/kg) or THC (10 mg/kg). On the 3rd day, mice were pretreated with CIAC001 or THC 45 min before the Y-maze test. Next, the “new arm” was blocked, and mice had 5 min to freely explore two arms (the “start arm” and the “old arm”, FIG. 8F). Mice were then removed from the Y-maze and placed into the cages for 2 min. During the test phase, mice were allowed to freely explore all three arms for 2 min, and the time spent in each arm was recorded and analyzed using the Noldus analyzing software. To eliminate olfactory interference, the Y-maze was wiped off with 70% alcohol after each test.

A short description of series [6]: Respiratory rate determination. The series is classed as in vivo, mice. Particulars: CIAC001 20 mg/kg i.p.; THC 10 mg/kg i.p. On the procedure: Mice were intraperitoneally injected with 20 mg/kg CIAC001 or 10 mg/kg THC once daily. After 1 h, the mice were anesthetized with isoflurane by a small animal anesthesia machine (R500IE, RWD Life Science Co) on day 2 and day 5. The respiratory rate of mice was recorded three times within 20 s. The weights of mice were recorded every day.

Usually IC50 stands for the concentration that inhibits the measured activity by half. As a reminder, the MRT is the average time that molecules of a dose stay in the body. As usually defined, the Tmax is the time from dosing to the highest level.

Read-outs that look alike come from different tables or passages of the source.

T1 sequence (P21554 whole entry): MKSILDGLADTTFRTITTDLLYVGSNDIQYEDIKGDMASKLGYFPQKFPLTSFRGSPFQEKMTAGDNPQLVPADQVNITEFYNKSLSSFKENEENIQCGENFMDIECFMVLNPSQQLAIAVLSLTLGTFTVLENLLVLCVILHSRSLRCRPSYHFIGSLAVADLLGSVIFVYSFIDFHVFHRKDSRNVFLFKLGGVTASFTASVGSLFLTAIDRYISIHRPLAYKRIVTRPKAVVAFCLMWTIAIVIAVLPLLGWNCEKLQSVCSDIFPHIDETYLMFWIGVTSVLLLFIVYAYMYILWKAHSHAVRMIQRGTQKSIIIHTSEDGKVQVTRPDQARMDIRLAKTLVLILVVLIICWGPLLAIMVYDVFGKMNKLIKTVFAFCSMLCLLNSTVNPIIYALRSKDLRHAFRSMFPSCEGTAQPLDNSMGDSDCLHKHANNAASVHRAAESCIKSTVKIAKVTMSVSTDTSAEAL
T2 sequence (P34972 whole entry): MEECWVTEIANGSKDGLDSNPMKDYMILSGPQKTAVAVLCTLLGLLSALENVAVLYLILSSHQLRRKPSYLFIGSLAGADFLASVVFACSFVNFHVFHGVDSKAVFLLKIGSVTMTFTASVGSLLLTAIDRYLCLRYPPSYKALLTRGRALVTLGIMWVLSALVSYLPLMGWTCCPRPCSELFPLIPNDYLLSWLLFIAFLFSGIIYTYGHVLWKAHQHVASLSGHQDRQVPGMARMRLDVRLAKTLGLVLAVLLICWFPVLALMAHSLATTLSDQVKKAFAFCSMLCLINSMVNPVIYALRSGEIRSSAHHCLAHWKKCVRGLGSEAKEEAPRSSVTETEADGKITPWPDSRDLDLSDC

Regarding `C=C(C)[C@@H]1CCC(C)=C[C@H]1c1c(O)cc(CCCCCCC)cc1O` [Compound 12f, (1′R,2′R)-4-Heptyl-5′-methyl-2′-(prop-1-en-2-yl)-1′,2′,3′,4′-tetra-hydro-[1,1′-biphenyl]-2,6-diol], the IC50 in the series with BV-2 cellular viability was 14.1 ± 0.7 µM; in series [1] (BV-2, 24 h) it was 42 ± 9.3 µM.
Take `C=C(C)[C@@H]1CCC(C)=C[C@H]1c1c(O)cc(CCCCC)cc1O` [CBD, (1′R,2′R)-5′-Methyl-4-pentyl-2′-(prop-1-en-2-yl)-1′,2′,3′,4′-tetra-hydro-[1,1′-biphenyl]-2,6-diol, reference compound]: the IC50 in the series on BV-2 cellular viability was 8.5 ± 0.9 µM. Moreover, the naloxone-precipitated withdrawal jumps result with morphine-dependent mice is given as “failed to significantly alleviate”. Besides, in [1] (BV-2 cells, LPS 200 ng/mL, 24 h), the IC50 turned out to be 12.3 ± 3.1 µM. Further, in series [2] (brain, mice), the AUC0→t came to 66.7 ng·h/g, the “AUC0→∞” value turned out to be 85.0 ng·h/g, the MRT came out at 42 min and the Tmax was determined as 30 min. In [2] (brain, mice), this molecule yielded a t1/2 of 30 min. In addition, in [2] (male, BALB/c, mouse, brain / plasma, oral, read-out: B/P ratios within the first 3 h after administration), the Kp is less than 1. Also, in series [2] (male, BALB/c, mouse, brain / plasma, po, 0.5 h, read-out: B/P ratio), the Kp at 0.5 h was 0.93 ± 0.176. Also, the Kp at 1 h in series [2] (male, BALB/c, mouse, brain / plasma, po, 1 h, read-out: B/P ratio) is 0.839 ± 0.144. In series [3] (0.083 h), the Kp at 0.083 h was 0.864 ± 0.227. Besides, the Kp at 0.25 h in [3] (0.25 h) was determined as 0.358 ± 0.106. For the same molecule, the “development of morphine-induced behavioral sensitization (induction period)” value with morphine-treated mice is recorded as “not obvious”. In addition, the “CB1 Receptor ΔEmax” value at CB1 Receptor (HEK293 transfected with CB1, forskolin-induced cAMP) came out at 13.3 ± 0.1%. Further, the “CB1 receptor activity” value at CB1 Receptor (cAMP assay) is listed as “slight CB1/CB2 receptor activity”. Moreover, in [4], the “LPS-induced overexpression of IL-1β mRNA” value is reported as “inhibited IL-1β overexpression only at 10 μM”, the “LPS-induced overexpression of IL-6 mRNA” value was “failed to inhibit” and the “LPS-induced overexpression of TNF-α mRNA” value is listed as “failed to inhibit”. Moreover, the “LPS-induced IL-6 mRNA expression at 10 μM” value in [4] (10 μM) was “augmented”. In addition, the “CB2 Receptor ΔEmax” value at CB2 Receptor (HEK293 transfected with CB2, forskolin-induced cAMP) was 30.2 ± 0.9%. Moreover, the “CB2 receptor activity” value on CB2 Receptor (cAMP assay) is reported as “slight CB1/CB2 receptor activity”.
For `CCCCCc1cc(O)c2c(c1)OC(C)(C)[C@@H]1CCC(C)=C[C@@H]21` [THC, reference compound], the “time spent on the new arm (Y maze)” value in series [5] is “spent significantly less time on the new arm”. Moreover, the respiratory rate entry in [6] was “Respiratory depression was found”.
For `C=CCOc1cc(CCCCC)cc(O)c1[C@@H]1C=C(C)CC[C@H]1C(=C)C` [Compound 4a, (1′R,2′R)-6-(Allyloxy)-5′-methyl-4-pentyl-2′-(prop-1-en-2-yl)-1′,2′,3′,4′-tetrahydro-[1,1′-biphenyl]-2-ol], the concentration for half-maximal inhibition (IC50) was determined as 71.5 ± 9.4 µM in the series on BV-2 cellular viability and 59.8 ± 15.6 µM in series [1] (BV-2, 24 h).
With `C=C(C)[C@@H]1CCC(C)=C[C@H]1c1c(O)cc(CCCCC)cc1OCCC` [Compound 3a, (1′R,2′R)-5′-Methyl-4-pentyl-2′-(prop-1-en-2-yl)-6-propoxy-1′,2′,3′,4′-tetrahydro-[1,1′-biphenyl]-2-ol], the IC50 in the series on BV-2 cellular viability is more than 200 µM; in series [1] (BV-2, 24 h) it was more than 200 µM.
With `C=C(C)[C@@H]1CCC(C)=C[C@H]1c1c(O)cc(CCC)cc1O` [Compound 12b, (1′R,2′R)-5′-Methyl-2′-(prop-1-en-2-yl)-4-propyl-1′,2′,3′,4′-tetra-hydro-[1,1′-biphenyl]-2,6-diol, reference compound], the IC50 is 18.3 ± 4.4 µM in the series with BV-2 cellular viability and 5.3 ± 2.9 µM in series [1] (BV-2, 24 h).
